Experimental findings from ChEMBL document CHEMBL1136945, “Antimalarial activity of thiosemicarbazones and purine derived nitriles” (Bioorg Med Chem Lett, 2009) are described below.

What all share (format): functional, organism-based
The subject of experiment [1] is Plasmodium falciparum. Put plainly: (§1) Antimalarial activity as reduced parasitaemia after 72 hrs against chloroquine-resistant Plasmodium falciparum K1 infected human O+ erythrocytes by DNA stain without pepstatin. To be noted: K1, 72 h.
Experiment [2] has as its system Plasmodium falciparum. As to the kind of experiment: Antimalarial activity as reduced parasitaemia after 72 hrs against chloroquine-sensitive Plasmodium falciparum 3D7 infected human O+ erythrocytes by DNA stain without pepstatin. To be noted: 3D7, 72 h.
In experiment [3] the test system is Plasmodium falciparum. The description is as §1. To be noted: K1, 72 h. This is another data set of the same source.
The subject of experiment [4] is Plasmodium falciparum. Put plainly: Antimalarial activity as reduced parasitaemia after 72 hrs against chloroquine-sensitive Plasmodium falciparum 3D7 infected human O+ erythrocytes by DNA stain with pepstatin. To be noted: 3D7, 72 h.

On to `NC(=S)N/N=C(/CCc1ccccc1)c1cccc(Cl)c1`, for which the EC50 in the experiment with Plasmodium falciparum [1], in the experiment with Plasmodium falciparum [2] and in the experiment on Plasmodium falciparum [3] was above 30 µM throughout.

On to `NC(=S)N/N=C(/C=C/c1ccccc1)c1cccc(C(F)(F)F)c1`, for which the EC50 in the experiment with Plasmodium falciparum [4], with Plasmodium falciparum [1], in the experiment with Plasmodium falciparum [2] and with Plasmodium falciparum [3] was 30 µM each time.

For the compound `NC(=S)N/N=C(/CCc1ccccc1)c1ccccc1`, the EC50 with Plasmodium falciparum [1], in the experiment on Plasmodium falciparum [2] and in the experiment with Plasmodium falciparum [3] was above 30 µM each time.

For `NC(=S)N/N=C(/CCc1ccccc1)c1cc(C(F)(F)F)cc(C(F)(F)F)c1`, the EC50 with Plasmodium falciparum [4], with Plasmodium falciparum [1], with Plasmodium falciparum [2] and with Plasmodium falciparum [3] was 30 µM throughout.

With `CCC(C)CNc1nc(C#N)nc2c1NCN2C1CCCC1` (centres undefined), the EC50 with Plasmodium falciparum [4], in the experiment with Plasmodium falciparum [1], in the experiment on Plasmodium falciparum [2] and in the experiment on Plasmodium falciparum [3] was above 30 µM in each case.

As for `NC(=S)N/N=C(/c1ccccc1)c1cc(Cl)cc(Cl)c1`, the EC50 with Plasmodium falciparum [1], in the experiment with Plasmodium falciparum [2] and in the experiment with Plasmodium falciparum [3] was above 30 µM throughout.

As for `CC(Nc1nc(C#N)nc2c1NCN2Cc1ccccc1)c1ccccc1` (centres undefined), the EC50 was 30 µM with Plasmodium falciparum [4], above 30 µM with Plasmodium falciparum [1], above 30 µM in the experiment on Plasmodium falciparum [2] and above 30 µM in the experiment with Plasmodium falciparum [3].

With `CCCCCCNc1nc(C#N)nc2c1NCN2CC1CCCCC1`, the EC50 in the experiment on Plasmodium falciparum [4], in the experiment on Plasmodium falciparum [1], in the experiment with Plasmodium falciparum [2] and with Plasmodium falciparum [3] was above 30 µM each time.

With `CCCCCCNc1nc(C#N)nc2c1NCN2C1CCCC1`, the EC50 in the experiment with Plasmodium falciparum [4], in the experiment with Plasmodium falciparum [1], with Plasmodium falciparum [2] and with Plasmodium falciparum [3] was above 30 µM throughout.

As to `CCCCCCNc1nc(C#N)nc2c1NCN2Cc1ccccc1`, the EC50 in the experiment on Plasmodium falciparum [4], with Plasmodium falciparum [1], in the experiment with Plasmodium falciparum [2] and in the experiment on Plasmodium falciparum [3] was above 30 µM each time.

With `CC(Nc1nc(C#N)nc2c1NCN2C1CCCC1)c1ccccc1` (centres undefined), the EC50 was above 30 µM in the experiment with Plasmodium falciparum [4], 30 µM in the experiment on Plasmodium falciparum [1], above 30 µM in the experiment on Plasmodium falciparum [2] and 30 µM in the experiment on Plasmodium falciparum [3].

For the compound `N#Cc1nc(NCc2ccc(Cl)cc2)c2c(n1)N(C1CCCC1)CN2`, the EC50 in the experiment with Plasmodium falciparum [4] was 30 µM; in the experiment with Plasmodium falciparum [1], above 30 µM; in the experiment with Plasmodium falciparum [2], above 30 µM; with Plasmodium falciparum [3] it was 30 µM.

For the compound `CCCCN1CNc2c(NCc3cccc(C)c3)nc(C#N)nc21`, the EC50 in the experiment on Plasmodium falciparum [4], in the experiment with Plasmodium falciparum [1], in the experiment on Plasmodium falciparum [2] and in the experiment on Plasmodium falciparum [3] was above 30 µM in each case.

For `N#Cc1nc(NCc2ccccc2)c2c(n1)N(Cc1ccccc1)CN2`, the EC50 in the experiment with Plasmodium falciparum [4], with Plasmodium falciparum [1], in the experiment with Plasmodium falciparum [2] and in the experiment with Plasmodium falciparum [3] was above 30 µM throughout.

Consider `CCCCN1CNc2c(NCc3ccccc3)nc(C#N)nc21`, for which the EC50 in the experiment with Plasmodium falciparum [4], in the experiment with Plasmodium falciparum [1], in the experiment with Plasmodium falciparum [2] and with Plasmodium falciparum [3] was above 30 µM throughout.

For `CCCCN1CNc2c(NCc3ccc(C)cc3)nc(C#N)nc21`, the EC50 in the experiment on Plasmodium falciparum [4], with Plasmodium falciparum [1], in the experiment with Plasmodium falciparum [2] and in the experiment on Plasmodium falciparum [3] was above 30 µM in each case.

For `CCCCN1CNc2c(NCc3ccc(OC)cc3)nc(C#N)nc21`, the EC50 in the experiment with Plasmodium falciparum [4], in the experiment with Plasmodium falciparum [1], with Plasmodium falciparum [2] and in the experiment on Plasmodium falciparum [3] was above 30 µM throughout.

Regarding `Cc1ccc(CNc2nc(C#N)nc3c2NCN3CCCO)cc1`, the EC50 in the experiment on Plasmodium falciparum [4], with Plasmodium falciparum [1], in the experiment on Plasmodium falciparum [2] and with Plasmodium falciparum [3] was above 30 µM each time.

As to `CCCCN1CNc2c(NCc3ccc(F)cc3)nc(C#N)nc21`, the EC50 with Plasmodium falciparum [4], in the experiment on Plasmodium falciparum [1], in the experiment on Plasmodium falciparum [2] and in the experiment with Plasmodium falciparum [3] was above 30 µM each time.

For the compound `N#Cc1nc(NCc2ccc(Cl)cc2)c2c(n1)N(CC1CCCCC1)CN2`, the EC50 in the experiment on Plasmodium falciparum [4], in the experiment on Plasmodium falciparum [1], in the experiment on Plasmodium falciparum [2] and in the experiment with Plasmodium falciparum [3] was above 30 µM in each case.

For `N#Cc1nc(NCc2ccccc2)c2c(n1)N(C1CCCCO1)CN2` (centres undefined), the EC50 with Plasmodium falciparum [4], in the experiment on Plasmodium falciparum [1], in the experiment with Plasmodium falciparum [2] and in the experiment with Plasmodium falciparum [3] was above 30 µM in each case.

Take `CCCCN1CNc2c(NCCc3ccccc3)nc(C#N)nc21`: the EC50 in the experiment with Plasmodium falciparum [4], in the experiment on Plasmodium falciparum [1], in the experiment on Plasmodium falciparum [2] and with Plasmodium falciparum [3] was above 30 µM each time.

Regarding `N#Cc1nc(NCc2ccc(F)cc2)c2c(n1)N(CCCCO)CN2`, the EC50 with Plasmodium falciparum [4], in the experiment on Plasmodium falciparum [1], with Plasmodium falciparum [2] and in the experiment on Plasmodium falciparum [3] was above 30 µM each time.

Regarding `N#Cc1nc(NCc2ccc(F)cc2)c2c(n1)N(Cc1ccccc1)CN2`, the EC50 with Plasmodium falciparum [4], with Plasmodium falciparum [1], in the experiment on Plasmodium falciparum [2] and in the experiment on Plasmodium falciparum [3] was above 30 µM each time.

Regarding `N#Cc1nc(NCCc2ccccc2)c2c(n1)N(Cc1ccccc1)CN2`, the EC50 in the experiment with Plasmodium falciparum [4], in the experiment on Plasmodium falciparum [1], in the experiment on Plasmodium falciparum [2] and with Plasmodium falciparum [3] was above 30 µM each time.

For `N#Cc1nc(NCCc2ccccc2)c2c(n1)N(c1cccnc1)CN2`, the EC50 in the experiment with Plasmodium falciparum [4], with Plasmodium falciparum [1], with Plasmodium falciparum [2] and in the experiment with Plasmodium falciparum [3] was above 30 µM each time.

As to `COc1ccc(CN2CNc3c(NCc4ccccc4)nc(C#N)nc32)cc1`, the EC50 in the experiment with Plasmodium falciparum [4], in the experiment on Plasmodium falciparum [1], with Plasmodium falciparum [2] and in the experiment on Plasmodium falciparum [3] was above 30 µM throughout.

`N#Cc1nc(NCc2ccc(Cl)cc2)c2c(n1)N(CCCCO)CN2`: the EC50 in the experiment with Plasmodium falciparum [4], in the experiment on Plasmodium falciparum [1], with Plasmodium falciparum [2] and in the experiment with Plasmodium falciparum [3] was above 30 µM in each case.

Take `COc1ccc(CN2CNc3c(NCc4ccc(Cl)cc4)nc(C#N)nc32)cc1`: the EC50 was 30 µM in the experiment with Plasmodium falciparum [4], above 30 µM in the experiment with Plasmodium falciparum [1], above 30 µM with Plasmodium falciparum [2] and above 30 µM in the experiment on Plasmodium falciparum [3].

For `N#Cc1nc(NCc2ccc(Cl)cc2)c2c(n1)N(Cc1cccc(C(F)(F)F)c1)CN2`, the EC50 is 30 µM with Plasmodium falciparum [4], above 30 µM in the experiment on Plasmodium falciparum [1], above 30 µM in the experiment with Plasmodium falciparum [2] and 30 µM in the experiment on Plasmodium falciparum [3].

For `CC(C)Oc1ccccc1-c1cccc(CNc2nc(C#N)nc3c2ncn3CCCO)c1`, the EC50 in the experiment on Plasmodium falciparum [4], in the experiment with Plasmodium falciparum [1], in the experiment on Plasmodium falciparum [2] and in the experiment with Plasmodium falciparum [3] was 30 µM each time.

In the case of `CCC(C)CNc1nc(C#N)nc2c1NCN2Cc1ccccc1` (centres undefined), the EC50 in the experiment on Plasmodium falciparum [4] is 30 µM; in the experiment on Plasmodium falciparum [1] it was above 30 µM; in the experiment with Plasmodium falciparum [2], above 30 µM; in the experiment on Plasmodium falciparum [3], above 30 µM.

As to `Cc1cccc(CNc2nc(C#N)nc3c2NCN3C2CCCC2)c1`, the EC50 in the experiment with Plasmodium falciparum [4], with Plasmodium falciparum [1], with Plasmodium falciparum [2] and in the experiment on Plasmodium falciparum [3] was above 30 µM each time.

Regarding `CCCCN1CNc2c(NCc3ccc(Br)cc3)nc(C#N)nc21`, the EC50 was 30 µM with Plasmodium falciparum [4], 30 µM with Plasmodium falciparum [1], above 30 µM with Plasmodium falciparum [2] and above 30 µM with Plasmodium falciparum [3].

On to `CCCCN1CNc2c(NCc3ccc(Cl)cc3)nc(C#N)nc21`, for which the EC50 with Plasmodium falciparum [4] was 30 µM; with Plasmodium falciparum [1], 30 µM; in the experiment on Plasmodium falciparum [2], above 30 µM; in the experiment on Plasmodium falciparum [3], above 30 µM.

`CCCCN1CNc2c(NC(C)c3ccccc3)nc(C#N)nc21` (centres undefined): the EC50 with Plasmodium falciparum [4] is 30 µM; with Plasmodium falciparum [1] it was 30 µM; with Plasmodium falciparum [2] it was above 30 µM; in the experiment on Plasmodium falciparum [3], 30 µM.

With `N#Cc1nc(NCc2ccc(-c3ccsc3)cc2)c2ncn(CCCO)c2n1`, the EC50 in the experiment with Plasmodium falciparum [4], in the experiment with Plasmodium falciparum [1], in the experiment with Plasmodium falciparum [2] and with Plasmodium falciparum [3] was 30 µM each time.

Consider `Cc1ccc(/C(=N/NC(N)=S)c2cc(C(F)(F)F)cc(C(F)(F)F)c2)cc1`, for which the EC50 with Plasmodium falciparum [4], in the experiment on Plasmodium falciparum [1], in the experiment on Plasmodium falciparum [2] and with Plasmodium falciparum [3] was 30 µM throughout.

On to `Cc1ccccc1-c1cccc(CNc2nc(C#N)nc3c2ncn3CCCO)c1`, for which the half-maximal effective concentration (EC50) with Plasmodium falciparum [4], in the experiment with Plasmodium falciparum [1], with Plasmodium falciparum [2] and in the experiment on Plasmodium falciparum [3] was 30 µM throughout.

On to `COc1ccc(CNc2nc(C#N)nc3c2NCN3Cc2ccccc2)cc1`, for which the EC50 with Plasmodium falciparum [4], with Plasmodium falciparum [1], with Plasmodium falciparum [2] and in the experiment on Plasmodium falciparum [3] was above 30 µM in each case.

As for `Cc1ccc(CNc2nc(C#N)nc3c2NCN3Cc2ccccc2)cc1`, the EC50 with Plasmodium falciparum [4], in the experiment on Plasmodium falciparum [1], in the experiment with Plasmodium falciparum [2] and in the experiment on Plasmodium falciparum [3] was above 30 µM throughout.

On to `N#Cc1nc(NCc2ccc(-c3cccs3)cc2)c2ncn(CCCO)c2n1`, for which the EC50 with Plasmodium falciparum [4], in the experiment on Plasmodium falciparum [1], in the experiment with Plasmodium falciparum [2] and with Plasmodium falciparum [3] was 30 µM throughout.

Take `N#Cc1nc(NCc2ccccc2)c2c(n1)N(CCCO)CN2`: the 50% effective concentration (EC50) with Plasmodium falciparum [4], with Plasmodium falciparum [1], with Plasmodium falciparum [2] and with Plasmodium falciparum [3] was above 30 µM in each case.

For `N#Cc1nc(NCc2ccc(Br)cc2)c2c(n1)N(Cc1ccccc1)CN2`, the EC50 with Plasmodium falciparum [4] is 30 µM; with Plasmodium falciparum [1] it was 30 µM; in the experiment with Plasmodium falciparum [2], above 30 µM; in the experiment on Plasmodium falciparum [3], 30 µM.

For the compound `N#Cc1nc(NCc2ccccc2)c2c(n1)N(Cc1cccc(C(F)(F)F)c1)CN2`, the EC50 in the experiment on Plasmodium falciparum [4], in the experiment with Plasmodium falciparum [1], in the experiment with Plasmodium falciparum [2] and with Plasmodium falciparum [3] was 30 µM throughout.

`COc1ccc(CNc2nc(C#N)nc3c2NCN3C2CCCC2)cc1`: the EC50 in the experiment on Plasmodium falciparum [4], with Plasmodium falciparum [1], with Plasmodium falciparum [2] and with Plasmodium falciparum [3] was above 30 µM each time.

Take `N#Cc1nc(NCc2ccc(Cl)cc2)c2c(n1)N(Cc1ccccc1)CN2`: the EC50 in the experiment with Plasmodium falciparum [4] was 30 µM; in the experiment with Plasmodium falciparum [1], above 30 µM; with Plasmodium falciparum [2] it was above 30 µM; with Plasmodium falciparum [3], 30 µM.

For `CC(=O)Nc1ccc(CNc2nc(C#N)nc3c2ncn3CCCO)cc1`, the EC50 in the experiment on Plasmodium falciparum [4], in the experiment on Plasmodium falciparum [1], in the experiment on Plasmodium falciparum [2] and in the experiment on Plasmodium falciparum [3] was 30 µM in each case.

In general, EC50 refers to the concentration giving half of the maximal effect. The low end stands for an effect from little substance, the high end for a need for much substance.
